Consider 16 compounds from ChEMBL document CHEMBL3045111, “Synthesis and herbicidal activities of novel 3-(substituted benzyloxy or phenoxy)-6-methyl-4-(3-trifluoromethylphenyl)pyridazine derivatives” (2012).

What all share (assay type): functional
In experiment [1] the test system is Digitaria. Description: Pre-emergence herbicidal activity against Digitaria adscendens under greenhouse condition at 750 g /ha measured after 24 days by spray method. Conditions: in Digitaria adscendens, 576 h, read-out: GI.
Experiment [2] relates to Amaranthus retroflexus. Description: Post-emergence herbicidal activity against one-leaf stage of Amaranthus retroflexus under greenhouse condition at 750 g /ha measured after 24 days by spray method. The note with it: 576 h, read-out: GI.
For experiment [3], the system named is Brassica rapa subsp. oleifera. Description: Post-emergence herbicidal activity against one-leaf stage Brassica rapa subsp. oleifera under greenhouse condition at 750 g /ha measured after 24 days by spray method. Conditions: 576 h, read-out: GI.
Experiment [4] relates to Amaranthus retroflexus. Description: Pre-emergence herbicidal activity against Amaranthus retroflexus under greenhouse condition at 750 g /ha measured after 24 days by spray method. The note with it: 576 h, read-out: GI.
For experiment [5], the system named is Echinochloa crus-galli. Description: Post-emergence herbicidal activity against one-leaf stage of Echinochloa crus-galli (barnyard grass) under greenhouse condition at 750 g /ha measured after 24 days by spray method. The note with it: 576 h, read-out: GI.
For experiment [6], the system named is Echinochloa crus-galli. Description: Pre-emergence herbicidal activity against Echinochloa crus-galli (barnyard grass) under greenhouse condition at 750 g /ha measured after 24 days by spray method. Conditions: 576 h, read-out: GI.
In experiment [7] the test system is Digitaria. Description: Post-emergence herbicidal activity against one-leaf stage of Digitaria adscendens under greenhouse condition at 750 g /ha measured after 24 days by spray method. Conditions: in Digitaria adscendens, 576 h, read-out: GI.
The subject of experiment [8] is Spirodela polyrhiza. Description: Bleaching herbicidal activity in Spirodela polyrhiza fronds cultured in compound-containing in medium assessed as chlorophyll inhibition at 1 ug/ml after 7 days. The note with it: 168 h.
Experiment [9] has as its system Brassica rapa subsp. oleifera. Description: Pre-emergence herbicidal activity against Brassica rapa subsp. oleifera under greenhouse condition at 750 g /ha measured after 24 days by spray method. Conditions: 576 h, read-out: GI.
For experiment [10], the system named is Spirodela polyrhiza. Description: Bleaching herbicidal activity in Spirodela polyrhiza fronds cultured in compound-containing in medium assessed as chlorophyll inhibition at 10 ug/ml after 7 days. Conditions: 168 h.

In general, inhibition refers to the relative decrease from the control value, in per cent.

Regarding `Cc1cc(C)cc(Oc2nnc(C)cc2-c2cccc(C(F)(F)F)c2)c1`, the inhibition of growth at 750 g/ha in experiment [1] amounted to 11%; in experiment [2], 8%; in [3], 56%; in experiment [4], 10%; in experiment [5], 6%; in experiment [6] it was 10%. The inhibition of growth at 750 g/ha in experiment [7] and in experiment [9] was 0% each time. The inhibition at 1 µg/mL in [8] came to 42%. Also, the inhibition at 10 µg/mL in experiment [10] is 63%.
Consider `COc1cccc(COc2nnc(C)cc2-c2cccc(C(F)(F)F)c2)c1`, for which the inhibition of growth at 750 g/ha was found to be 0% in [1]; 12% in experiment [2]; 9% in experiment [3]; 0% in experiment [4]; 5% in experiment [5]; 20% in experiment [6]. Also, the inhibition of growth at 750 g/ha in [7] and in experiment [9] was 0% throughout. Besides, in experiment [8], the inhibition at 1 µg/mL was determined as 5%. The inhibition at 10 µg/mL in [10] amounted to 23%.
For the compound `Cc1cc(-c2cccc(C(F)(F)F)c2)c(OCc2cccc(Br)c2)nn1`, the inhibition of growth at 750 g/ha came out at 0% in [1]; 39% in experiment [2]; 65% in [3]; 0% in experiment [4]; 4% in experiment [5]; 7% in [6]. The results for the inhibition of growth at 750 g/ha in [7] and in experiment [9] were 3% and 0%, respectively. The inhibition at 1 µg/mL in experiment [8] turned out to be 66%. Further, in experiment [10], the inhibition at 10 µg/mL is 83%.
For `Cc1cc(-c2cccc(C(F)(F)F)c2)c(Oc2ccccc2C)nn1`, the inhibition of growth at 750 g/ha in [1] amounted to 7%; in experiment [2], 50%; in experiment [3] it was 55%; in experiment [4] it was 0%; in experiment [5], 24%; in experiment [6], 0%. For the same compound, the values for the inhibition of growth at 750 g/ha in [7] and in experiment [9] were 11% and 0%, respectively. Further, the inhibition at 1 µg/mL in [8] stood at 8%. Besides, the inhibition at 10 µg/mL in experiment [10] amounted to 73%.
Take `Cc1cccc(COc2nnc(C)cc2-c2cccc(C(F)(F)F)c2)c1`: the inhibition of growth at 750 g/ha in experiment [1] came to 0%; in experiment [2], 22%; in experiment [3], 13%; in experiment [4] it was 0%; in experiment [5], 0%; in experiment [6], 10%. In addition, the inhibition of growth at 750 g/ha in experiment [7] and in experiment [9] was 0% each time. Besides, the inhibition at 1 µg/mL in experiment [8] amounted to 43%. Besides, the inhibition at 10 µg/mL in experiment [10] was found to be 46%.
`Cc1cc(-c2cccc(C(F)(F)F)c2)c(OCc2cccc(Cl)c2)nn1`: the inhibition of growth at 750 g/ha in experiment [1] stood at 2%; in experiment [2], 31%; in [3], 33%; in experiment [4], 18%; in experiment [5], 0%; in [6] it was 36%. The inhibition of growth at 750 g/ha in experiment [7] and in [9] was 0% throughout. For the same compound, the inhibition at 1 µg/mL in experiment [8] is 29%. In addition, in experiment [10], the inhibition at 10 µg/mL amounted to 45%.
With `Cc1cc(-c2cccc(C(F)(F)F)c2)c(Oc2c(C)cccc2C)nn1`, the inhibition of growth at 750 g/ha came out at 13% in experiment [1]; 34% in [2]; 0% in experiment [3]; 19% in [4]; 0% in [5]; 2% in [6]. Also, the inhibition of growth at 750 g/ha in experiment [7] and in [9] was 0% throughout. Further, the inhibition at 1 µg/mL in [8] turned out to be 8%. The inhibition at 10 µg/mL in experiment [10] turned out to be 9%.
Take `Cc1cc(-c2cccc(C(F)(F)F)c2)c(Oc2ccc(C(C)(C)C)cc2)nn1`: the inhibition of growth at 750 g/ha in experiment [1] was 4%; in experiment [2], 38%; in [3], 44%; in experiment [4] it was 0%; in [5], 33%; in experiment [6], 0%. The inhibition of growth at 750 g/ha is 0% in experiment [7] and 1% in experiment [9]. Further, in [8], the inhibition at 1 µg/mL worked out at 0%. In addition, in experiment [10], the inhibition at 10 µg/mL was determined as 35%.
Turning to `Cc1cc(-c2cccc(C(F)(F)F)c2)c(Oc2ccccc2-c2ccccc2)nn1`, the inhibition of growth at 750 g/ha was found to be 0% in experiment [1]; 25% in [2]; 0% in experiment [3]; 18% in experiment [4]; 0% in [5]; 0% in experiment [6]. For the same compound, the inhibition of growth at 750 g/ha in experiment [7] and in [9] was 0% each time. Further, the inhibition at 1 µg/mL in [8] was determined as 29%. Moreover, in experiment [10], the inhibition at 10 µg/mL came to 33%.
Turning to `Cc1cc(-c2cccc(C(F)(F)F)c2)c(OCc2ccccc2F)nn1`, the inhibition of growth at 750 g/ha in [1] came out at 10%; in experiment [2], 39%; in experiment [3], 79%; in experiment [4], 4%; in experiment [5], 19%; in [6], 13%. The inhibition of growth at 750 g/ha was 0% in [7] and 28% in experiment [9]. Moreover, in [8], the inhibition at 1 µg/mL was 65%. The inhibition at 10 µg/mL in experiment [10] stood at 71%.
Turning to `Cc1ccc(COc2nnc(C)cc2-c2cccc(C(F)(F)F)c2)cc1`, the inhibition of growth at 750 g/ha in experiment [1] turned out to be 4%; in [2], 22%; in [3], 41%; in [4], 9%; in experiment [5] it was 6%; in experiment [6], 28%. Besides, the inhibition of growth at 750 g/ha in experiment [7] and in experiment [9] was 0% in each case. Besides, in experiment [8], the inhibition at 1 µg/mL was 20%. In addition, in experiment [10], the inhibition at 10 µg/mL stood at 31%.
For `COc1ccc(COc2nnc(C)cc2-c2cccc(C(F)(F)F)c2)cc1`, the inhibition of growth at 750 g/ha in experiment [1] came to 48%; in [2], 16%; in [3], 13%; in [4], 0%; in experiment [5] it was 0%; in [6] it was 39%. Besides, the results for the inhibition of growth at 750 g/ha in experiment [7] and in experiment [9] were 20% and 0%, respectively. Further, in experiment [8], the inhibition at 1 µg/mL was found to be 0%. Moreover, in [10], the inhibition at 10 µg/mL is 72%.
In the case of `Cc1cc(-c2cccc(C(F)(F)F)c2)c(OCc2ccc(Cl)cc2)nn1`, the inhibition of growth at 750 g/ha in [1] turned out to be 6%; in [2] it was 45%; in experiment [3] it was 72%; in experiment [4], 9%; in experiment [5], 0%; in experiment [6], 21%. For the same compound, the results for the inhibition of growth at 750 g/ha in [7] and in experiment [9] were 0% and 17%, respectively. Further, the inhibition at 1 µg/mL in experiment [8] worked out at 53%. Also, the inhibition at 10 µg/mL in experiment [10] came out at 66%.
In the case of `Cc1cc(-c2cccc(C(F)(F)F)c2)c(Oc2ccccc2F)nn1`, the inhibition of growth at 750 g/ha in experiment [1] came to 11%; in experiment [2], 73%; in experiment [3], 69%; in [4], 23%; in [5], 5%; in experiment [6] it was 6%. The figures for the inhibition of growth at 750 g/ha in experiment [7] and in experiment [9] were 16% and 4%, respectively. Besides, the inhibition at 1 µg/mL in experiment [8] turned out to be 63%. Also, in [10], the inhibition at 10 µg/mL came out at 66%.
As to `Cc1cc(-c2cccc(C(F)(F)F)c2)c(OCc2ccc(Br)cc2)nn1`, the inhibition of growth at 750 g/ha in [1] came to 0%; in experiment [2], 23%; in experiment [3], 20%; in [4], 0%; in experiment [5] it was 15%; in experiment [6] it was 4%. Further, the inhibition of growth at 750 g/ha in [7] and in [9] was 0% each time. Also, in [8], the inhibition at 1 µg/mL came to 14%. In addition, the inhibition at 10 µg/mL in experiment [10] is 27%.
As to `Cc1cc(-c2cccc(C(F)(F)F)c2)c(Oc2ccccc2C(F)(F)F)nn1`, the inhibition of growth at 750 g/ha in experiment [1] amounted to 0%; in [2], 3%; in [3], 46%; in experiment [4], 0%; in [5], 12%; in experiment [6], 11%. Further, the inhibition of growth at 750 g/ha in experiment [7] was found to be 0%; in [9], 10%. The inhibition at 1 µg/mL in experiment [8] worked out at 32%. In [10], the inhibition at 10 µg/mL is 37%.
